Test results reported in patent US20150044296A1, “COMBINATION THERAPY TO IMPROVE JOINT, TENDON, AND LIGAMENT HEALING” (priority 2012, published 2015).

System: trephine defect (bony healing)
Test: Bony healing of trephine defect after systemic treatment
Format: in vivo, mice
Conditions: systemic administration

Structure (SMILES)	bony ingrowth / bony regeneration
CC[C@H](C)[C@H](NC(=O)[C@H](CCC(=O)O)NC(=O)[C@H](CO)NC(=O)[C@@H](NC(=O)[C@@H](N)CO)C(C)C)C(=O)N[C@@H](CCC(N)=O)C(=O)N[C@@H](CC(C)C)C(=O)N[C@@H](CCSC)C(=O)N[C@@H](Cc1cnc[nH]1)C(=O)N[C@@H](CC(N)=O)C(=O)N[C@@H](CC(C)C)C(=O)NCC(=O)N[C@@H](CCCCN)C(=O)N[C@@H](Cc1cnc[nH]1)C(=O)N[C@@H](CC(C)C)C(=O)N[C@@H](CC(N)=O)C(=O)N[C@@H](CO)C(=O)N[C@@H](CCSC)C(=O)N[C@@H](CCC(=O)O)C(=O)N[C@@H](CCCN=C(N)N)C(=O)N[C@H](C(=O)N[C@@H](CCC(=O)O)C(=O)N[C@@H](Cc1c[nH]c2ccccc12)C(=O)N[C@@H](CC(C)C)C(=O)N[C@@H](CCCN=C(N)N)C(=O)N[C@@H](CCCCN)C(=O)N[C@@H](CCCCN)C(=O)N[C@@H](CC(C)C)C(=O)N[C@@H](CCC(N)=O)C(=O)N[C@@H](CC(=O)O)C(=O)N[C@H](C(=O)N[C@@H](Cc1cnc[nH]1)C(=O)N[C@@H](CC(N)=O)C(=O)N[C@@H](Cc1ccccc1)C(=O)O)C(C)C)C(C)C [PTH]	56%
c1cc(CN2CCCNCCNCCCNCC2)ccc1CN1CCCNCCNCCCNCC1 [AMD3100]	59.7%
